# Data from patent publication US20120214193A1, “METHOD FOR MEASUREMENT OF FLUORESCENCE INTENSITY OF VOLTAGE-SENSITIVE FLUORESCENT DYE” (Keio University, priority 2009, published 2012).
# Test system: human ES cell derived cardiomyocytes
# Experiment: Activity potential measurement of cardiomyocytes treated with a potential-sensitive fluorochrome
# Type: cell-based
# Conditions: 18.75 μM vitamin E and/or 18.75 μM cholesterol
# Text: Human embryonic stem cells (ES cells) were obtained from Stem Cell Research Center, the Institute for Frontier Medical Sciences, Kyoto University (Embryonic Stem Cell Center sponsored by the National Bioresource Project). Human induced pluripotent stem cells (iPS cells) were obtained from the Center for iPS Cell Research and Application, Institute for Integrated Cell-Material Sciences, Kyoto University. […] To prepare the MEF cells, the fetus of an ICR mouse at day 14 of gestation (CLEA Japan, Inc.) was beheaded and disemboweled and thereafter disintegrated into discrete cells by the method described in WO 2006/022377. […] In other experiments, the cultured cells were treated with a potential-sensitive fluorochrome and 18.75 μM of vitamin E and/or 18.75 μM of cholesterol and then the temporal change in fluorescent intensity was measured. […]
row,Compound,detection of activity potential waveforms from single cardiomyocytes (FIG. 5)
1,CC(C)CCC[C@@H](C)[C@H]1CC[C@H]2[C@@H]3CC=C4C[C@@H](O)CC[C@]4(C)[C@H]3CC[C@]12C [cholesterol],became observable
2,vitamin E,became observable
